These results are taken from patent US8871760B2, “[1,2,4]triazolo[3,4-C][1,4]oxazines as P2X7 modulators” (Roche Palo Alto LLC, priority 2009, dated 2014).

The structures appear in SMILES notation.

The assay has as its target T1, human P2X7 (UniProt Q99572).
T1 sequence (Q99572 1-595): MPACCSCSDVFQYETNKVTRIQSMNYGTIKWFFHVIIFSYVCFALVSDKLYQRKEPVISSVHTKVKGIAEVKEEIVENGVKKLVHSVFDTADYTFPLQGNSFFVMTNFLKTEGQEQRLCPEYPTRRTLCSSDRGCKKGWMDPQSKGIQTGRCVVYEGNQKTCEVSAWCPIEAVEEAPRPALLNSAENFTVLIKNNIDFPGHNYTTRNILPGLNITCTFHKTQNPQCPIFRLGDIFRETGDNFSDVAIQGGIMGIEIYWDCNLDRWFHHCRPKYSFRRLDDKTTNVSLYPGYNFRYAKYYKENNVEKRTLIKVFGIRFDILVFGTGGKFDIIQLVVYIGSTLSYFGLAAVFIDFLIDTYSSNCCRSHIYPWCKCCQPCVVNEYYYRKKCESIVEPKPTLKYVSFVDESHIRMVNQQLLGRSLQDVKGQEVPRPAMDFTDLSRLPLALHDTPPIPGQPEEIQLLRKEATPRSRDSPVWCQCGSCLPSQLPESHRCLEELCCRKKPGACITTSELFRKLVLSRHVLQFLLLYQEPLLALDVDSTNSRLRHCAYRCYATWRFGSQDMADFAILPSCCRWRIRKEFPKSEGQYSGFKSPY
The assay is described as follows: Intracellular Calcium Flux (FLIPR) Assay. In kind it is cell-based. As to the method:
Intracellular Calcium Flux (FLIPR) Assay
Compound and Reagent Preparation
Stock solutions of compounds were prepared from powders as a 10 mM DMSO stock solution. These solutions were stored at RT during the two week period of these experiments to prevent freeze-thaw of the DMSO stocks. The DMSO stocks were added to the appropriate assay buffer at a concentration of 10 μM, and then diluted serially to the final concentrations that were tested. No observable precipitate was formed at any time during this process. The aqueous solutions of compounds as well as ATP (Sigma A7699) and BzATP (Sigma B6396) were prepared fresh for each day of experiment.
1321N1 cells stably expressing the full length human P2X7 gene (1321N1-hP2X7) and HEK293 cells stably expressing the full length rat P2X7 gene (HEK293-rP2X7) were obtained from the Roche Cell Culture Facility. 1321N1-hP2X7 cells were grown in Dulbecco's Modified Eagle's Medium (DMEM) high glucose supplemented with 10% FBS and […] G418. HEK293-rP2X7 cells were grown in DMEM/F-12 supplemented with 10% FBS, 1 mM CaCl2, 2 mM MgCl2, 2 mM L-Glutamine and […] G418. Cells were split such that they never became >70% confluent.
Intracellular Calcium Flux (FLIPR)
On the day prior to the experiment, 1321N1-hP2X7 or HEK293-rP2X7 cells were released into suspension with calcium-free PBS+Versene and washed by centrifugation with calcium-free PBS to remove the Versene. Cells were resuspended in growth medium at a density of 2.5×10^5 cells/mL and seeded into black walled, clear bottom 96 well plates (50,000 cells/well) approximately 18 hr prior to intracellular calcium flux experiments.
On the day of the experiment, plates were washed with FLIPR buffer (calcium- and magnesium-free Hank's Balanced Salt Solution (HBSS) supplemented with 10 mM Hepes, 2.5 mM probenecid and 2 mM calcium chloride) using a BIO-TEK 96 channel plate washer and incubated with […] fluo-3 dye at 37° C. for one hr. The dye was then removed by plate washing and the cells were allowed to equilibrate for 20 min at room temperature with antagonist or vehicle (FLIPR buffer). Agonist (100 μM BzATP final concentration for hP2X7; 5 μM BzATP final concentration or rP2X7) was added online with the FLIPR and fluorescence measurements made at 1 sec intervals for 60 sec followed by 3 sec intervals for a further 4 min (5 min total). A final addition of 5 μM ionomycin was made and the maximal BzATP-evoked fluorescence normalized to the maximal ionomycin-evoked fluorescence.

Take `C[C@H](CO)N1Cc2c(Nc3nnc4n3C(c3cccc(F)c3)COC4)ccc(Cl)c2C1=O` (stereo partly drawn) [Compound 28, 7-Chloro-4-[5-(3-fluoro-phenyl)-5,6-dihydro-8H-[1,2,4]triazolo[3,4-c][1,4]oxazin-3-ylamino]-2-((R)-2-hydroxy-1-methyl-ethyl)-2,3-dihydro-isoindol-1-one]: the pIC50 was 5.625.

As for `Cc1cc(Cl)c(OCCO)cc1Nc1nnc2n1C(c1cccc(F)c1)COC2` (stereo not drawn) [Compound 29, 2-{2-Chloro-5-[5-(3-fluoro-phenyl)-5,6-dihydro-8H-[1,2,4]triazolo[3,4-c][1,4]oxazin-3-ylamino]-4-methyl-phenoxy}-ethanol], the pIC50 was found to be 7.13.

As for `Cc1ccc(-c2cc(C)n(CCO)n2)cc1Nc1nnc2n1[C@H](c1ccc(F)cc1)COC2` [Compound 30, 2-(3-{3-[(R)-5-(4-Fluoro-phenyl)-5,6-dihydro-8H-[1,2,4]triazolo[3,4-c][1,4]oxazin-3-ylamino]-4-methyl-phenyl}-5-methyl-pyrazol-1-yl)-ethanol], the pIC50 was determined as 7.735.

Consider `Cc1ccc(-c2cc(C)n(C[C@@H](C)O)n2)cc1Nc1nnc2n1[C@H](c1ccc(F)cc1)COC2` [Compound 31, (R)-1-(3-{3-[(R)-5-(4-Fluoro-phenyl)-5,6-dihydro-8H-[1,2,4]triazolo[3,4-c][1,4]oxazin-3-ylamino]-4-methyl-phenyl}-5-methyl-pyrazol-1-yl)-propan-2-ol], for which the pIC50 is recorded as 7.45.

As to `Cc1ccc(-c2cc(C)n(C[C@@H](O)CO)n2)cc1Nc1nnc2n1[C@H](c1ccc(F)cc1)COC2` [Compound 32, (R)-3-(3-{3-[(R)-5-(4-Fluoro-phenyl)-5,6-dihydro-8H-[1,2,4]triazolo[3,4-c][1,4]oxazin-3-ylamino]-4-methyl-phenyl}-5-methyl-pyrazol-1-yl)-propane-1,2-diol], the pIC50 was found to be 7.5475.

As to `COC[C@H](O)Cn1nc(-c2ccc(C)c(Nc3nnc4n3[C@H](c3ccc(F)cc3)COC4)c2)cc1C` [Compound 33, (R)-1-(3-{3-[(R)-5-(4-Fluoro-phenyl)-5,6-dihydro-8H-[1,2,4]triazolo[3,4-c][1,4]oxazin-3-ylamino]-4-methyl-phenyl}-5-methyl-pyrazol-1-yl)-3-methoxy-propan-2-ol], the pIC50 worked out at 7.56.

For `Cc1ccc(-c2cc(C)n(C[C@H](C)O)n2)cc1Nc1nnc2n1[C@H](c1ccc(F)cc1)COC2` [Compound 34, (S)-1-(3-{3-[(R)-5-(4-Fluoro-phenyl)-5,6-dihydro-8H-[1,2,4]triazolo[3,4-c][1,4]oxazin-3-ylamino]-4-methyl-phenyl}-5-methyl-pyrazol-1-yl)-propan-2-ol], the pIC50 is given as 7.4.

With `Cc1ccc(-c2cc(C)n(C[C@H](O)CO)n2)cc1Nc1nnc2n1[C@H](c1ccc(F)cc1)COC2` [Compound 35, (S)-3-(3-{3-[(R)-5-(4-Fluoro-phenyl)-5,6-dihydro-8H-[1,2,4]triazolo[3,4-c][1,4]oxazin-3-ylamino]-4-methyl-phenyl}-5-methyl-pyrazol-1-yl)-propane-1,2-diol], the pIC50 is reported as 7.755.

In the case of `Cc1ccc2ncccc2c1Nc1nnc2n1[C@H](c1ccc(F)cc1)COC2` [Compound 36, [(R)-5-(4-Fluoro-phenyl)-5,6-dihydro-8H-[1,2,4]triazolo[3,4-c][1,4]oxazin-3-yl]-(6-methyl-quinolin-5-yl)-amine], the pIC50 amounted to 7.87.

For the molecule `Cc1ccc(-c2ccnn(C)c2=O)cc1Nc1nnc2n1[C@H](c1ccc(F)cc1)COC2` [Compound 37, 4-{3-[(R)-5-(4-Fluoro-phenyl)-5,6-dihydro-8H-[1,2,4]triazolo[3,4-c][1,4]oxazin-3-ylamino]-4-methyl-phenyl}-2-methyl-2H-pyridazin-3-one], the pIC50 is on record as 7.865.

For the molecule `Cc1ccc2[nH]c(=O)ccc2c1Nc1nnc2n1[C@H](c1ccc(F)cc1)COC2` [Compound 38, 5-[(R)-5-(4-Fluoro-phenyl)-5,6-dihydro-8H-[1,2,4]triazolo[3,4-c][1,4]oxazin-3-ylamino]-6-methyl-1H-quinolin-2-one], the pIC50 is reported as 7.46.

Take `Cc1cc(-c2ccc(Cl)c(Nc3nnc4n3[C@H](c3ccc(F)cc3)COC4)c2)nn1CCO` [Compound 40, 2-(3-{4-Chloro-3-[(R)-5-(4-fluoro-phenyl)-5,6-dihydro-8H-[1,2,4]triazolo[3,4-c][1,4]oxazin-3-ylamino]-phenyl}-5-methyl-pyrazol-1-yl)-ethanol]: the pIC50 was found to be 7.54.

In the case of `Cc1ccc(-c2ccc(=O)[nH]n2)cc1Nc1nnc2n1[C@H](c1ccc(F)cc1)COC2` [Compound 41, 6-{3-[(R)-5-(4-Fluoro-phenyl)-5,6-dihydro-8H-[1,2,4]triazolo[3,4-c][1,4]oxazin-3-ylamino]-4-methyl-phenyl}-2H-pyridazin-3-one], the pIC50 is 7.665.

Regarding `O=c1[nH]ncc2c(Nc3nnc4n3[C@H](c3ccc(F)cc3)COC4)cccc12` [Compound 42, 5-[(R)-5-(4-Fluoro-phenyl)-5,6-dihydro-8H-[1,2,4]triazolo[3,4-c][1,4]oxazin-3-ylamino]-2H-phthalazin-1-one], the pIC50 was 6.135.

With `Cc1ccc(-c2ccn[nH]c2=O)cc1Nc1nnc2n1[C@H](c1ccc(F)cc1)COC2` [Compound 43, 4-{3-[(R)-5-(4-Fluoro-phenyl)-5,6-dihydro-8H-[1,2,4]triazolo[3,4-c][1,4]oxazin-3-ylamino]-4-methyl-phenyl}-2H-pyridazin-3-one], the pIC50 was determined as 8.28.

Regarding `Cc1cc(Cl)c(OCCO)cc1Nc1nnc2n1[C@H](c1cccc(F)c1)COC2` [Compound 44, 2-{2-Chloro-5-[(R)-5-(3-fluoro-phenyl)-5,6-dihydro-8H-[1,2,4]triazolo[3,4-c][1,4]oxazin-3-ylamino]-4-methyl-phenoxy}-ethanol], the pIC50 is given as 7.6.

As to `Cc1cc(Cl)c(OCCO)cc1Nc1nnc2n1[C@H](c1ccc(F)cc1)C[S@@+]([O-])C2` [Compound 47, 2-{2-Chloro-5-[(5R,7R)-5-(4-fluoro-phenyl)-7-oxo-5,6,7,8-tetrahydro-7lambda*4*- [1,2,4]triazolo[3,4-c][1,4]thiazin-3-ylamino]-4-methyl-phenoxy}-ethanol], the negative logarithm of the IC50 (pIC50) is 7.705.

Consider `O=c1[nH]ncc2c(Nc3nnc4n3[C@H](c3ccc(F)cc3)COC4)c(Br)ccc12` [Compound 48, 6-Bromo-5-[(R)-5-(4-fluoro-phenyl)-5,6-dihydro-8H-[1,2,4]triazolo[3,4-c][1,4]oxazin-3-ylamino]-2H-phthalazin-1-one], for which the pIC50 stood at 7.57.

In the case of `O=c1[nH]nccc1-c1ccc(Br)c(Nc2nnc3n2[C@H](c2ccc(F)cc2)COC3)c1` [Compound 49, 4-{4-Bromo-3-[(R)-5-(4-fluoro-phenyl)-5,6-dihydro-8H-[1,2,4]triazolo[3,4-c][1,4]oxazin-3-ylamino]-phenyl}-2H-pyridazin-3-one], the pIC50 came out at 8.2.

In the case of `Cc1cc(Cl)c(-n2ncccc2=O)cc1Nc1nnc2n1[C@H](c1ccc(F)cc1)COC2` [Compound 50, 2-{2-Chloro-5-[(R)-5-(4-fluoro-phenyl)-5,6-dihydro-8H-[1,2,4]triazolo[3,4-c][1,4]oxazin-3-ylamino]-4-methyl-phenyl}-2H-pyridazin-3-one], the pIC50 amounted to 7.17.

For `Cc1ccc(-c2ccnn(C)c2=O)cc1Nc1nnc2n1[C@H](c1ccc(F)cc1)CSC2` [Compound 51, 4-{3-[(R)-5-(4-Fluoro-phenyl)-5,6-dihydro-8H-[1,2,4]triazolo[3,4-c][1,4]thiazin-3-ylamino]-4-methyl-phenyl}-2-methyl-2H-pyridazin-3-one], the pIC50 was 8.16.
